“And” between values parts separate entries of the source, which are not always exact repeats. Equal values may be shown once. Read-outs that look alike come from different tables or passages of the source.
Assays:
[1] = tested on: tbaqp2/tbaqp3 null cells expressing TbAQP2^I110W/L264R; assay type: cell-based, Trypanosoma brucei brucei
[2] = tested on: tbaqp2/tbaqp3 null cells expressing TbAQP2 L118M; assay: microbe, parasite or virus in culture; assay type: cell-based, Trypanosoma brucei brucei
TbAQP2/HAPT1 [3] = target: T1, TbAQP2/HAPT1 (Trypanosoma brucei brucei, UniProt Q6ZXT3); assay: cell-based; assay type: cell-based
[4] = tested on: tbaqp2/tbaqp3 null cells expressing TbAQP2 L84W; assay: microbe, parasite or virus in culture; assay type: cell-based, Trypanosoma brucei brucei
TbAQP2^S131P/S263A = TbAQP2^S131P/S263A (Trypanosoma brucei brucei, UniProt Q6ZXT3, S131P/S263A); assay: [3H]-pentamidine transport; assay type: cell-based; details: 30 nM [3H]-pentamidine
Sequence of TbAQP2^S131P/S263A (Q6ZXT3 whole entry S131P/S263A): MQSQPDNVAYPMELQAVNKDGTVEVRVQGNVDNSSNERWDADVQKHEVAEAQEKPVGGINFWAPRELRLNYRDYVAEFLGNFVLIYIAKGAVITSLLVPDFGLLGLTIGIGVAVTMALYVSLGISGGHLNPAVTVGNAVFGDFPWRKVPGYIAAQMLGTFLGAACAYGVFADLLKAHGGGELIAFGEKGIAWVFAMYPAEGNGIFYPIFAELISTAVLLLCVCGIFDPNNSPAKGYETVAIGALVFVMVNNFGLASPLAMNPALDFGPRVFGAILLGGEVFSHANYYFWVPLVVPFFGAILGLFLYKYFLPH

TbAQP2^L264R = TbAQP2^L264R (Trypanosoma brucei brucei, UniProt Q6ZXT3, L264R); assay: [3H]-pentamidine transport; assay type: cell-based; details: 30 nM [3H]-pentamidine
Sequence of TbAQP2^L264R (Q6ZXT3 whole entry L264R): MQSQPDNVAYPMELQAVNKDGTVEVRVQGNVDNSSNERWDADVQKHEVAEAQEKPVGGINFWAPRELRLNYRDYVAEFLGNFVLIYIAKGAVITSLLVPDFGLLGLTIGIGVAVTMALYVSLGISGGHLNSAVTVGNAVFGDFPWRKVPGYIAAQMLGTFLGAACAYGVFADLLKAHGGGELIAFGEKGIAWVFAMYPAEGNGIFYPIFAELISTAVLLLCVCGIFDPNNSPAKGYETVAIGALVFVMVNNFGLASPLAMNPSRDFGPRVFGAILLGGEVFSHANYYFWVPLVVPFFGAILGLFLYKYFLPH

[5] = tested on: tbaqp2/tbaqp3 null cells expressing TbAQP2^I110W; assay type: cell-based, Trypanosoma brucei brucei
[6] = tested on: tbaqp2/tbaqp3 null cells expressing TbAQP2^L258Y; assay type: cell-based, Trypanosoma brucei brucei
[7] = tested on: tbaqp1-2-3 null cells expressing TbAQP2WT; assay: Drug sensitivity assay (resazurin), pentamidine and SHAM; assay type: cell-based, Trypanosoma brucei brucei; details: Trypanosoma brucei, +AQP2 W.T in aqp1-3 triple KO; 3 repeats; read-out: Alamar blue EC50, MEAN
[8] = target: T2, aqp1/aqp2/aqp3 null cells expressing TbAQP2-WT (Trypanosoma brucei brucei, UniProt Q6ZXT3); assay: Inhibition of [3H]-pentamidine uptake (dose response); assay type: cell-based; details: zero inhibitor point 0.01011
T2 sequence (Q6ZXT3 1-312): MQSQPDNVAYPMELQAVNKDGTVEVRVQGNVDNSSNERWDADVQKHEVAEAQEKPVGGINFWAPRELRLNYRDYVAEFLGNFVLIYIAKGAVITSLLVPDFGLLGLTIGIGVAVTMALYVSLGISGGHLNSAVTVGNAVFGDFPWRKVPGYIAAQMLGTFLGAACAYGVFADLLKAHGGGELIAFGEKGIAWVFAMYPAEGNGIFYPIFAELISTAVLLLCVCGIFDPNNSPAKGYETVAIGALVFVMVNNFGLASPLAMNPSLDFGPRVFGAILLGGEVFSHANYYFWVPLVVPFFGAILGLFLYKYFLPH

[9] = tested on: tbaqp1-2-3 null cells expressing TbAQP2 position 84, 118 and 218 Trp and Met mutants; assay: Drug sensitivity assay (resazurin), pentamidine and SHAM; assay type: cell-based, Trypanosoma brucei brucei
TbAQP2 L118M = TbAQP2 L118M (Trypanosoma brucei brucei, UniProt Q6ZXT3, L118M); assay: [3H]-pentamidine transport; assay type: cell-based; details: AQP2 mutant L118M
Sequence of TbAQP2 L118M (Q6ZXT3 whole entry L118M): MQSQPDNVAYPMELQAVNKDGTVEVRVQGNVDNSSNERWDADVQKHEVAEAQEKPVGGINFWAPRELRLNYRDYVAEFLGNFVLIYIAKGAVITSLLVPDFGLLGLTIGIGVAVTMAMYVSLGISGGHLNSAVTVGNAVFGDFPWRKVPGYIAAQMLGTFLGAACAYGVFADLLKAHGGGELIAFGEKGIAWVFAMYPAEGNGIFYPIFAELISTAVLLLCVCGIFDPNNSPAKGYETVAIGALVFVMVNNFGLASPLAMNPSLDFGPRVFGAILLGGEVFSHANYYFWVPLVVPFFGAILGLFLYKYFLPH

T. b. brucei 2T1 = assay type: cell-based, Trypanosoma brucei brucei
tbaqp2 null (AQP2-KO) = assay: Drug sensitivity assay (resazurin); assay type: cell-based; details: Trypanosoma brucei, read-out: EC50 AQP2-KO AVG, AQP2-KO / tbaqp2 null; 48 h drug + 24 h resazurin
[10] = tested on: tbaqp2/tbaqp3 null cells expressing TbAQP2^W192G; assay type: cell-based, Trypanosoma brucei brucei
[11] = tested on: tbaqp2/tbaqp3 null cells expressing TbAQP2^I190T/W192G; assay type: cell-based, Trypanosoma brucei brucei
[12] = tested on: tbaqp2/tbaqp3 null cells expressing TbAQP2 L84M; assay: microbe, parasite or virus in culture; assay type: cell-based, Trypanosoma brucei brucei; details: Trypanosoma brucei
[13] = tested on: tbaqp2/tbaqp3 null cells expressing TbAQP2 L118W; assay: microbe, parasite or virus in culture; assay type: cell-based, Trypanosoma brucei brucei
TbAQP3^W102I/R256L = TbAQP3^W102I/R256L (Trypanosoma brucei brucei, UniProt Q6ZXT2, R256L/W102I); assay: [3H]-pentamidine transport; assay type: cell-based; details: AQP3 W102I/R256L; over 30 minutes
Sequence of TbAQP3^W102I/R256L (Q6ZXT2 whole entry W102I/R256L): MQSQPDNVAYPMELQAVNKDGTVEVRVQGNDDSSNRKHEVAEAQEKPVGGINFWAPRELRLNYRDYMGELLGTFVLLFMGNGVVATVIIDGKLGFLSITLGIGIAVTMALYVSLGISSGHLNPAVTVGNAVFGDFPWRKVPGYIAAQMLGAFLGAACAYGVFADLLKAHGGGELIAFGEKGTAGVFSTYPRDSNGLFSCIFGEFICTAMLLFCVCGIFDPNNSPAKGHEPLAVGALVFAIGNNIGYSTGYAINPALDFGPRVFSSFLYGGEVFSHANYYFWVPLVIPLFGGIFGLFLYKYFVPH

TbAQP2/HAPT1 [14] = target: T1, TbAQP2/HAPT1; details: cited from earlier work
TbAQP2^L84W/L118W = TbAQP2^L84W/L118W (Trypanosoma brucei brucei, UniProt Q6ZXT3, L118W/L84W); assay: [3H]-pentamidine transport; assay type: cell-based; details: AQP2 mutant L84W/118W; n=3
Sequence of TbAQP2^L84W/L118W (Q6ZXT3 whole entry L84W/L118W): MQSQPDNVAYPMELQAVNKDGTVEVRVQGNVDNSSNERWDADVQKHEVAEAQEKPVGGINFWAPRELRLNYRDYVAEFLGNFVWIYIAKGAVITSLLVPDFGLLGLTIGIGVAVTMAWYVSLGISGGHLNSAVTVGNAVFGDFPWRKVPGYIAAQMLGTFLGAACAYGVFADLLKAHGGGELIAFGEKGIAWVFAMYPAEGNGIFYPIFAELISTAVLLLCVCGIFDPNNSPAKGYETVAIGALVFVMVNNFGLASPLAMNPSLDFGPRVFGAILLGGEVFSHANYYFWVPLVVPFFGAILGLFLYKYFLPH

TbAQP2^I190T/W192G = TbAQP2^I190T/W192G (Trypanosoma brucei brucei, UniProt Q6ZXT3, I190T/W192G); assay type: cell-based; details: Fig. 3A, exp AQP016-AQP023; AQP2 mutant I190T/W192G
Sequence of TbAQP2^I190T/W192G (Q6ZXT3 whole entry I190T/W192G): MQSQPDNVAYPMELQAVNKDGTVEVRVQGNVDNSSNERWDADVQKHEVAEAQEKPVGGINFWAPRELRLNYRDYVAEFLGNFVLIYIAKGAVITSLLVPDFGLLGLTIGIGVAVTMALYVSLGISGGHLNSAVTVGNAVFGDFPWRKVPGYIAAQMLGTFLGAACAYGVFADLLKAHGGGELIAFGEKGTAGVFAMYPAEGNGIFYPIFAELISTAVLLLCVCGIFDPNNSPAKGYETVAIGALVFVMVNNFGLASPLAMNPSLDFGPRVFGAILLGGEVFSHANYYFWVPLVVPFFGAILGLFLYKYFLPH

[15] = Trypanosoma brucei, read-out: Alamar blue EC50, MEAN
[16] = Trypanosoma brucei, read-out: Alamar blue EC50, single repeats
[17] = Trypanosoma brucei, read-out: EC50 AVG
[18] = read-out: Alamar blue EC50, single repeats

N=C(N)c1ccc(OCCCCCOc2ccc(C(=N)N)cc2)cc1 [Pentamidine]
EC50 as percent of AQP2/3 null EC50, MEAN [1]: 101.41% | EC50 [2, 15]: 34.2 nM | EC50 [2, 16]: 39 nM | EC50 [2, 17]: 34.2 nM | EC50 [2, 18]: 39.5 nM and 24.2 nM | ΔG0 (TbAQP2/HAPT1 [3]): -10.2 kcal/mol | ΔG^0 (binding energy of substrate-transporter pair) (TbAQP2/HAPT1 [3]): -10.2 kcal/mol | δ(ΔG0) (TbAQP2/HAPT1 [3]): 0 kcal/mol | Ki (TbAQP2/HAPT1 [3]; Ki): 36 ± 0.6 nM | Ki (TbAQP2/HAPT1 [3]; Ki / affinity): 35 nM | EC50 [4, 15]: 32 nM | EC50 [4, 16]: 34.5 nM | EC50 [4, 17]: 32 nM | EC50 [4, 18]: 33.6 nM and 27.8 nM | Pentamidine transport rate (TbAQP2^S131P/S263A): 0.00111 pmol/10E7 cells/s | Pentamidine transport rate (TbAQP2^L264R): 0.00017 pmol/10E7 cells/s | EC50, percent of AQP2/3 null EC50 [5]: 122.13% | EC50, percent of AQP2/3 null EC50 [6]: 0.50% | EC50 [7]: 1.1 nM | pentamidine uptake ([8]; log[inhibitor] -3.60): -1.5e-19 | pentamidine uptake ([8]; log[inhibitor] -6.48): 0.001052 | pentamidine uptake ([8]; log[inhibitor] -7.00): 0.005102 | pentamidine uptake ([8]; log[inhibitor] -7.52): 0.006394 | pentamidine uptake ([8]; log[inhibitor] -8.00): 0.007854 | pentamidine uptake ([8]; log[inhibitor] -8.48): 0.008733 | pentamidine uptake ([8]; log[inhibitor] -9.00): 0.008545 | pentamidine uptake ([8]; log[inhibitor] -9.48): 0.009352 | EC50 ([9]; +L84M in aqp1-3 triple KO, read-out: Alamar blue EC50, single repeats): 0.8 nM and 0.9 nM | EC50 ([9]; +L84W in aqp1-3 triple KO, read-out: Alamar blue EC50, single repeats): 18.7 nM and 15.3 nM | EC50 ([9]; +L84W/L118W in aqp1-3 triple KO, read-out: Alamar blue EC50, single repeats): 65.7 nM | EC50 ([9]; +L118M in aqp1-3 triple KO, read-out: Alamar blue EC50, single repeats): 27.8 nM and 29.4 nM | EC50 ([9]; +L118W in aqp1-3 triple KO, read-out: Alamar blue EC50, single repeats): 27.1 nM and 25.8 nM | EC50 ([9]; +L218W in aqp1-3 triple KO, read-out: Alamar blue EC50, single repeats): 3.9 nM and 5.3 nM | EC50 ([9]; Trypanosoma brucei, +L84M in aqp1-3 triple KO, 3 repeats, read-out: Alamar blue EC50, MEAN): 0.77 nM | EC50 ([9]; Trypanosoma brucei, +L84M in aqp1-3 triple KO, read-out: Alamar blue EC50, single repeats): 0.65 nM | EC50 ([9]; Trypanosoma brucei, +L84W in aqp1-3 triple KO, 3 repeats, read-out: Alamar blue EC50, MEAN): 16.1 nM | EC50 ([9]; Trypanosoma brucei, +L84W in aqp1-3 triple KO, read-out: Alamar blue EC50, single repeats): 14.4 nM | EC50 ([9]; Trypanosoma brucei, +L84W/L118W in aqp1-3 triple KO, read-out: Alamar blue EC50, single repeats): 53.4 nM | EC50 ([9]; Trypanosoma brucei, +L118M in aqp1-3 triple KO, 3 repeats, read-out: Alamar blue EC50, MEAN): 28 nM | EC50 ([9]; Trypanosoma brucei, +L118M in aqp1-3 triple KO, read-out: Alamar blue EC50, single repeats): 26.8 nM | EC50 ([9]; Trypanosoma brucei, +L118W in aqp1-3 triple KO, 3 repeats, read-out: Alamar blue EC50, MEAN): 26.6 nM | EC50 ([9]; Trypanosoma brucei, +L118W in aqp1-3 triple KO, read-out: Alamar blue EC50, single repeats): 26.9 nM | EC50 ([9]; Trypanosoma brucei, +L218M in aqp1-3 triple KO, 3 repeats, read-out: Alamar blue EC50, MEAN): 0.63 nM | EC50 ([9]; Trypanosoma brucei, +L218W in aqp1-3 triple KO, 3 repeats, read-out: Alamar blue EC50, MEAN): 4.39 nM | EC50 ([9]; Trypanosoma brucei, +L218W in aqp1-3 triple KO, read-out: Alamar blue EC50, single repeats): 4 nM | Pentamidine transport rate AVG (TbAQP2 L118M; n=3): 0.0006601 pmol/10E7 cells/s | Pentamidine transport rate (TbAQP2 L118M; single experiments): 0.000589 pmol/10E7 cells/s and 0.000736 pmol/10E7 cells/s and 0.0006552 pmol/10E7 cells/s | Transport rate AVG (T. b. brucei 2T1): 21.86 | EC50 (tbaqp2 null (AQP2-KO)): 130 nM | EC50 as percent of AQP2/3 null EC50, MEAN [10]: 8.08% | EC50 as percent of AQP2/3 null EC50, MEAN [11]: 99.52% | EC50 as percent of AQP2/3 null EC50, single repeats [11]: 131.67% and 89.434% and 77.4635% | EC50 ([12]; read-out: Alamar blue EC50, MEAN): 0.43 nM | EC50 ([12]; read-out: EC50 AVG): 0.43 nM | EC50 [13, 15]: 46.3 nM | EC50 [13, 16]: 52.4 nM | EC50 [13, 17]: 46.3 nM | EC50 [13, 18]: 40.8 nM and 45.7 nM | Pentamidine transport rate (TbAQP3^W102I/R256L): 1.51E-04 pmol/10E7 cells/s | Gibbs free energy of pentamidine/AQP2 interaction (TbAQP2/HAPT1 [14]): -10 kcal/mol | Pentamidine transport rate AVG (TbAQP2^L84W/L118W): 0.0002985 pmol/10E7 cells/s | Pentamidine transport rate as percent of +AQP2-WT, AVG (TbAQP2^I190T/W192G): 2.70% | Pentamidine transport rate, AVG (TbAQP2^I190T/W192G): 0.0005659 pmol/10E7 cells/s
